Measurements as given in the NIST ThermoML archive (doi:10.1016/j.jct.2019.01.007).
Several values for one entry are separate records, joined by “and”; a condition that tells them apart may be missing. Identical values can stand only once.

Conditions: Liquid

CCCCCCCCCC(=O)OC [methyl decanoate]
Conditions | vapor or sublimation pressure
273.35 K | 0.0004731 kPa
273.84 K | 0.0004984 kPa
274.32 K | 0.0005246 kPa
274.8 K | 0.0005538 kPa
275.29 K | 0.0005879 kPa
275.77 K | 0.0006152 kPa
276.26 K | 0.0006487 kPa
276.74 K | 0.0006849 kPa
277.23 K | 0.0007225 kPa
277.71 K | 0.0007597 kPa
278.2 K | 0.0008032 kPa
278.69 K | 0.0008442 kPa
279.18 K | 0.0008873 kPa
279.66 K | 0.0009341 kPa
280.15 K | 0.0009819 kPa
280.64 K | 0.001035 kPa
281.12 K | 0.001093 kPa
281.47 K | 0.001128 kPa
282.96 K | 0.001314 kPa
283.48 K | 0.001386 kPa
284.46 K | 0.001532 kPa
284.96 K | 0.001613 kPa
285.43 K | 0.001692 kPa
285.64 K | 0.00173 kPa
285.74 K | 0.001743 kPa
285.95 K | 0.001776 kPa
286.44 K | 0.001869 kPa
286.95 K | 0.001967 kPa
287.44 K | 0.002063 kPa
287.94 K | 0.002166 kPa and 0.002174 kPa
288.93 K | 0.002392 kPa
289.31 K | 0.002487 kPa
289.43 K | 0.002508 kPa
290.42 K | 0.002759 kPa
290.53 K | 0.002791 kPa
290.92 K | 0.002894 kPa
291.81 K | 0.003154 kPa
291.92 K | 0.003182 kPa
292.42 K | 0.003341 kPa
292.9 K | 0.003501 kPa
293.41 K | 0.00367 kPa
293.91 K | 0.003845 kPa
294.3 K | 0.00399 kPa
294.9 K | 0.004224 kPa
295.4 K | 0.004415 kPa
295.51 K | 0.004442 kPa
295.9 K | 0.004625 kPa
296.39 K | 0.004836 kPa
296.77 K | 0.004989 kPa
297.39 K | 0.005295 kPa
297.89 K | 0.005534 kPa
297.98 K | 0.005566 kPa
298.88 K | 0.006057 kPa
299.38 K | 0.006339 kPa
300.37 K | 0.00692 kPa
300.46 K | 0.006953 kPa
300.87 K | 0.007243 kPa
301.87 K | 0.007893 kPa
302.37 K | 0.008238 kPa
302.84 K | 0.008517 kPa
302.94 K | 0.008627 kPa
303.36 K | 0.008981 kPa
303.76 K | 0.009236 kPa
303.81 K | 0.0093 kPa
303.82 K | 0.009286 kPa and 0.009287 kPa
303.86 K | 0.00937 kPa
304.85 K | 0.0102 kPa and 0.01021 kPa
305.24 K | 0.01047 kPa
305.26 K | 0.01052 kPa
305.29 K | 0.01057 kPa
305.35 K | 0.01065 kPa
305.42 K | 0.01069 kPa
307.68 K | 0.01286 kPa
308.6 K | 0.01393 kPa
308.64 K | 0.014 kPa
310.04 K | 0.0157 kPa
310.06 K | 0.01581 kPa
310.09 K | 0.0158 kPa
310.1 K | 0.01574 kPa
310.14 K | 0.01575 kPa
312.52 K | 0.01912 kPa
313.44 K | 0.02065 kPa
313.47 K | 0.0207 kPa
314.89 K | 0.02316 kPa
314.94 K | 0.0232 kPa
317.35 K | 0.02798 kPa and 0.02794 kPa
317.42 K | 0.02817 kPa
318.24 K | 0.0299 kPa
318.28 K | 0.03012 kPa
319.72 K | 0.0337 kPa
319.78 K | 0.03379 kPa and 0.03376 kPa
322.16 K | 0.04037 kPa
322.2 K | 0.0406 kPa
322.27 K | 0.04082 kPa
323.11 K | 0.04344 kPa
324.57 K | 0.04813 kPa
324.61 K | 0.04845 kPa
324.63 K | 0.04869 kPa
327.04 K | 0.05787 kPa
327.09 K | 0.05806 kPa
327.93 K | 0.06147 kPa
327.97 K | 0.06194 kPa
329.38 K | 0.06819 kPa
329.43 K | 0.06843 kPa
329.46 K | 0.06916 kPa
329.51 K | 0.0691 kPa
330.86 K | 0.07578 kPa
331.89 K | 0.08137 kPa
331.9 K | 0.08129 kPa
331.96 K | 0.08174 kPa
332.78 K | 0.08635 kPa
334.24 K | 0.09568 kPa
334.28 K | 0.09573 kPa
334.33 K | 0.09658 kPa and 0.09631 kPa
334.38 K | 0.09672 kPa
335.68 K | 0.1054 kPa
336.74 K | 0.1133 kPa
336.79 K | 0.1135 kPa
337.62 K | 0.1198 kPa
339.09 K | 0.1322 kPa
339.17 K | 0.1333 kPa
339.24 K | 0.1341 kPa
340.51 K | 0.1449 kPa
340.55 K | 0.1456 kPa
341.5 K | 0.1546 kPa
341.58 K | 0.1555 kPa
341.63 K | 0.1564 kPa
341.66 K | 0.157 kPa
348.04 K | 0.2325 kPa
352.92 K | 0.3135 kPa
357.8 K | 0.4166 kPa
362.67 K | 0.5493 kPa
367.55 K | 0.7207 kPa
372.43 K | 0.9271 kPa
374.86 K | 1.054 kPa
377.3 K | 1.195 kPa

CCCCCCCCCCCC(=O)OC [methyl dodecanoate]
Transpiration method
Conditions | vapor or sublimation pressure [kPa]
323.8 K | 0.00609
325.9 K | 0.00701
327.9 K | 0.00853
329.9 K | 0.00982
331.8 K | 0.0113
333.9 K | 0.0134
335.7 K | 0.0164
338.7 K | 0.0198
340.7 K | 0.0228
344.1 K | 0.0291
345.9 K | 0.0331
349.3 K | 0.0413
351.3 K | 0.047
354.4 K | 0.0603
356.4 K | 0.0682
359.6 K | 0.0828
361.5 K | 0.0952
364.7 K | 0.11
366.7 K | 0.132
370 K | 0.16
371.8 K | 0.178
374.7 K | 0.214
378.6 K | 0.263
381.7 K | 0.314
386.8 K | 0.412
389.6 K | 0.491
391.9 K | 0.534
394.9 K | 0.635
397 K | 0.694
399.2 K | 0.774
401.3 K | 0.898

CCCCCCCCCCCCCCCCC(=O)OC [methyl heptadecanoate]
Transpiration method
Conditions | vapor or sublimation pressure [kPa]
337.9 K | 0.000259
339.75 K | 0.000298
341.8 K | 0.000371
342.85 K | 0.000395
345.85 K | 0.000532
347.95 K | 0.000685
350 K | 0.000803
354.3 K | 0.00114
357.5 K | 0.00144
360.6 K | 0.00195
362.5 K | 0.00206
365.25 K | 0.00272
366.85 K | 0.00301
369 K | 0.00377
372.3 K | 0.00464
376.2 K | 0.0058
379.2 K | 0.00772
382.25 K | 0.0089
385.65 K | 0.0111
387 K | 0.0126
389.25 K | 0.0152
391.3 K | 0.0176
393.4 K | 0.0186
396.2 K | 0.0246
399.2 K | 0.0302
402.35 K | 0.0355
405.3 K | 0.044
408.15 K | 0.0523
412.2 K | 0.0635
